In patent publication US8236858B2, “Substituted aryl-indole compounds and their kynurenine/kynuramine-like metabolites as therapeutic agents” (Neurim Pharmaceuticals (1991) Ltd., priority 2006, dated 2012):

Columns and labels:
MPTP-treated mice = experiment: Anti-Parkinsonian activity in MPTP-treated mice with a sub threshold dose of L-DOPA (motor activity counts); assay type: in vivo, C57 BL/6 mice; conditions: for reversal of the motor deficits of MPTP-treated mice (in words): 3 mg/kg, combined with a sub-threshold (inactive) dose of L-Dopa; for LOCOMOTION / REARING / TOTAL ACTIVITY: MPTP-treated mice (2×40 mg/kg s.c.), compound 3 mg/kg orally + 5 mg/kg L-Dopa s.c., counts with Vehicle (no MPTP) = 100%
Experimental: Animals: six month old male C57 BL/6 mice, weighing 22-25 g were used. Following arrival at the laboratory, the mice were allowed to acclimatize for two weeks in a room with controlled temperature (21±1° C.), and a constant light-dark schedule (12 hr on/12 hr off, lights on between 06.00 and 18.00 hrs). Free access to food and water was maintained throughout. They were housed in groups of 12 animals and tested only during the hours of light (08.00-15.00 hrs). All testing was performed in a normally lighted room.
Behavioural measurements and apparatus: An automated device, consisting of macrolon rodent test cages (40×25×15 cm), each placed within two series of infra-red beams (at two different heights, one low and one high, 2 and 8 cm, respectively, above the surface of the sawdust, 1 cm deep), was used to measure spontaneous and/or drug-induced motor activity of 1-methyl 4-phenyl 1,2,3,6-tetrahydropyridine (MPTP) and control mice. The following parameters were measured: LOCOMOTION was measured by the low grid of infrared beams. Counts were registered only when the mouse in the horizontal plane, ambulating around the test-cage. REARING was registered throughout the time when at least one high level beam was interrupted, i.e. the number of counts registered was proportional to the amount of time spent rearing. TOTAL ACTIVITY was measured by a sensor (a pick-up similar to a gramophone needle, mounted on a lever with a counterweight) with which the test cage was constantly in contact. The sensor registered all types of vibration received from the test cage, such as those produced both by locomotion and rearing as well as shaking, tremors, scratching and grooming.
Behavioral measurements (locomotion, rearing and total activity): Twelve days after MPTP injections (2×40 mg/kg, s.c., 24 hr interval), the mice were administered orally with the different compounds at 3 mg/kg or vehicle (0.1% Tween-80 in 1% methylcellulose) and immediately thereafter placed in the activity test chambers and their motor behaviors were monitored for 60 min. After 60 min, the mice were injected with 5 mg/kg L-Dopa (s.c) and then replaced in the test chamber and activity measurements maintained for an additional 300 min.
Table 2 presents the locomotion, rearing and total activity counts of MPTP-treated and control mice administered either tested substances or vehicle administered with a sub threshold dose of L-Dopa.

GSK3β = target: T1, GSK3β (Homo sapiens, UniProt P49841); experiment: Evaluation of GSK3β activity: inhibition of purified GSK3β, [γ-32P]ATP / GS-2 peptide filter assay; assay type: biochemical; conditions: for IC50: purified GSK3β expressed in Sf9 cells, 15 μM ATP, GS-2 peptide substrate, 30 min at 30° C.; for inhibiting activity on GSK3β activity (in words): summary of Table 1
T1 construct: made in house; host or cells: insect Sf9 cells
Experimental: Compounds were evaluated for inhibition against purified GSK3β. GSK3β was expressed in and purified from insect Sf9 cells. Compounds (10 μM) were assayed; following a 1/100 dilution of the enzyme in 1 mg/ml BSA, 10 mM DTT, with 5 μl of 40 μM GS-2 peptide as a substrate, in a buffer, in the presence of 15 μM [γ-^32P]ATP (3000 Ci/mmol; 1 mCi/ml) in a final volume of 30 μl. After 30-min incubation at 30° C., 25-μl aliquots of supernatant were spotted onto 2.5×3 cm pieces of Whatman P81 phosphocellulose paper, and, 20 s later, the filters were washed five times (for at least 5 min each time) in a solution of 10 ml of phosphoric acid/liter of water. The wet filters were counted in the presence of 1 ml of scintillation fluid.

NMDA-activated currents = experiment: Electrophysiological characterisation of NMDA-activated currents in freshly isolated hippocampal neurones (whole-cell patch clamp); assay type: cell-based, Wistar rats; conditions: for % Inhibition Peak Current / % Inhibition Steady State Current: 1 μM substance, 10 μM glycine, 300 μM L-aspartate, holding potential −70 mV, mean of at least 4 cells; for blocking activity on NMDA-activated currents (in words): summary of Table 3, 1 μM
Experimental: Isolation of hippocampal neurons: Wistar rats (12-14 days) were decapitated without anesthesia and the hippocampus was removed. It was manually cut into slices (0.2-0.4 mm), in a solution containing (mM): 150 NaCl; 5 KCL; 1.25 NaH2PO4; 2 CaCl2; 2 MgCl2; 26 NaHCO3; 20 glucose. Slices were preincubated in this solution for 30 min at room temperature. The enzymatic treatment proceeded in the same solution with lower Ca^2+ concentration (0.5 mm) containing 0.4 mg/ml protease from aspergillus oryzae. The incubation in the enzyme solution proceeded at 32° C. within 10 min. Slices were kept subsequently in enzyme-free solution containing normal Ca^2±concentration and used within 6-8 h for obtaining isolated neurons. Throughout the entire procedure the solutions were continuously saturated with a 95% O2 and 5% CO2 gas mixture to maintain pH of 7.4. For cell dissociation the slice was transferred into the extracellular solution containing (mM): 150 NaCl; 5 KCl; 2 CaCl2; 10 n-2-hydroxyethylpiperazine-n′-2-ethanesulphonic acid (Hepes); pH adjusted with NaOH to 7.4. Single cells were isolated from CA and CA3 zones of hippocampal slices by vibrodissociation method. […] After isolation they were usually suitable for the recording for 1-2 h.
Salines and chemicals: The contents of the extracellular solution was as follows (in mM): 130 NaCl, 5KCl, 2CaCl2, 20 n-2-hydroxyethylpiperazine-n′-2-ethansulfonic acid (Hepes); 0.1 μm TTX, 10 μm glycine, […] 1-aspartate; pH was adjusted with NaOH to 7.4.
The contents of the intracellular solution were as follows (in mM): 110 CsF, 20 Tris-HCl (pH=7.2). L-aspartate and glycine solutions were prepared on the day of experiment.
The tested substances were dissolved in DMSO.
Current recording and data analysis: The drug-containing solutions were applied by the fast “concentration clamp” method using “jumping table” set-up. The currents were recorded with patch clamp technique in the whole-cell configuration. Recording of the currents was performed using EPC-7 L/M patch-clamp amplifier.
NMDA-activated currents: The currents were filtered at 3 kHz (three-pole active Bessel filter) digitally sampled at the rate 6000 μs per point for NMDA activated currents. NMDA-induced transmembrane currents were measured in the presence of 10 μM glycine and 300 μM L-aspartate in the control and test solutions. The currents were recorded at holding potential −70 mV.
Calculations: The inhibition of current at 1 μM of the substance was averaged at least for 4 cells. The effect of substance was measured as the mean ratio I/Io where I was the current under the action of substance and Io was the current in control conditions.

T1 sequence (P49841 whole entry, species assumed): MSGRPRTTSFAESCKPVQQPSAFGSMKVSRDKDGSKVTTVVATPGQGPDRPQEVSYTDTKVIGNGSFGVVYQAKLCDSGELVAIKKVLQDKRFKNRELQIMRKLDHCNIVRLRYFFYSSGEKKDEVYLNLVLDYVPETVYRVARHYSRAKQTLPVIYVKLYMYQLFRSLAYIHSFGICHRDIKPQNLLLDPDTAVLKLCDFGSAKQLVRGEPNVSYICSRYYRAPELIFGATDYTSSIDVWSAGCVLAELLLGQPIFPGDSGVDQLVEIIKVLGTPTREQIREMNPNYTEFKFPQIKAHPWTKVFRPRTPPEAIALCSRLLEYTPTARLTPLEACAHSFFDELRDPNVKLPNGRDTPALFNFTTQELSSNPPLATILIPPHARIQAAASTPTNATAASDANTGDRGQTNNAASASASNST

SMILES	reversal of the motor deficits of MPTP-treated mice (in words) (MPTP-treated mice)	LOCOMOTION (MPTP-treated mice)	REARING (MPTP-treated mice)	TOTAL ACTIVITY (MPTP-treated mice)	IC50 (GSK3β)	inhibiting activity on GSK3β activity (in words) (GSK3β)	% Inhibition Peak Current (NMDA-activated currents)	% Inhibition Steady State Current (NMDA-activated currents)	blocking activity on NMDA-activated currents (in words) (NMDA-activated currents)
COc1ccc2[nH]cc(CCNc3ccc(S(C)(=O)=O)cc3[N+](=O)[O-])c2c1 [N-(4-methylsulfonyl-2-nitrophenyl)-5-methoxytryptamine]	significantly reversed the motor deficits	41%	74%	70%	–	–	–	–	–
COc1ccc2[nH]cc(CCNc3ccc(C#N)c(C#N)c3)c2c1 [N-(3,4-dicyanophenyl)-5-methoxytryptamine]	–	19%	27%	48%	16.8 µM	significant inhibiting activity	84.4%	78.4%	significant blocking activity
Nc1ccccc1C(=O)CCNc1ccc([N+](=O)[O-])cc1Br [2-(2-aminobenzoyl)-N-2-bromo-4-nitro-phenylethylamine]	–	–	–	–	–	–	86.23%	90.78%	–
O=C(O)c1ccc(NCCc2c[nH]c3ccccc23)c([N+](=O)[O-])c1 [N-(4-Carboxy-2-nitrophenyl)-tryptamine]	–	–	–	–	–	–	101.6%	92.84%	–
N#Cc1ccc(NCCc2c[nH]c3ccccc23)cc1C#N [N-(3,4-dicyanophenyl)-tryptamine]	–	18%	25%	47%	14.8 µM	significant inhibiting activity	93.4%	66.4%	significant blocking activity
CS(=O)(=O)c1ccc(NCCC(=O)c2ccccc2N)c([N+](=O)[O-])c1 [2-(2-aminobenzoyl)-N-2-nitro-4-methylsulfonyl-phenylethylamine]	significantly reversed the motor deficits	54%	100%	72%	–	–	–	–	–
COc1ccc2[nH]cc(CCNc3ccc([N+](=O)[O-])cc3C#N)c2c1 [N-(2-cyano-4-nitrophenyl)-5-methoxytryptamine]	–	–	–	–	–	–	96.21%	88.21%	–
O=[N+]([O-])c1ccccc1NCCc1c[nH]c2ccccc12 [N-(2-Nitrophenyl)-tryptamine]	significantly reversed the motor deficits	53%	100%	90%	9.9 µM	significant inhibiting activity	90.93%	66.83%	significant blocking activity
O=C(O)c1cc([N+](=O)[O-])ccc1NCCc1c[nH]c2ccccc12 [N-(2-Carboxy-4-nitrophenyl)-tryptamine]	–	16%	25%	45%	14.2 µM	significant inhibiting activity	76.7%	70.4%	significant blocking activity
Nc1ccccc1C(=O)CCNc1ccc(Br)cc1[N+](=O)[O-] [2-(2-aminobenzoyl)-N-2-nitro-4-bromo-phenylethylamine]	–	–	–	–	–	–	90.85%	88.77%	–
COc1ccc2[nH]cc(CCNc3ccc(Br)cc3[N+](=O)[O-])c2c1 [N-(4-bromo-2-nitrophenyl)-5-methoxytryptamine]	–	16%	24%	46%	–	–	104.2%	78.18%	significant blocking activity
N#Cc1ccc(NCCC(=O)c2ccccc2N)c([N+](=O)[O-])c1 [2-(2-aminobenzoyl)-N-2-nitro-4-cyano-phenylethylamine]	–	17%	29%	46%	29.3 µM	significant inhibiting activity	85.95%	87.24%	–
COc1ccc2[nH]cc(CCNc3ccc([N+](=O)[O-])cc3C(=O)O)c2c1 [N-(2-Carboxy-4-nitrophenyl)-5-methoxytryptamine]	–	–	–	–	–	–	84%	93.6%	–
COc1ccc2[nH]cc(CCNc3ccc([N+](=O)[O-])cc3Br)c2c1 [N-(2-bromo-4-nitrophenyl)-5-methoxytryptamine]	–	–	–	–	–	–	91.53%	86.57%	–
COc1ccc2[nH]cc(CCNc3ccc(C(=O)O)cc3[N+](=O)[O-])c2c1 [N-(4-Carboxy-2-nitrophenyl)-5-methoxytryptamine]	–	22%	30%	46%	21.7 µM	significant inhibiting activity	89.92%	74.14%	significant blocking activity
Nc1ccccc1C(=O)CCNc1ccccc1[N+](=O)[O-] [2-(2-aminobenzoyl)-N-2-nitrophenylethylamine]	–	17.6%	25%	45%	18.5 µM	–	–	–	–
O=[N+]([O-])c1cc(Br)ccc1NCCc1c[nH]c2ccccc12 [N-(2-nitro-4-bromophenyl)-tryptamine]	–	–	–	–	–	–	95.8%	83%	significant blocking activity
